Assay results: patent publication US20170265463A1, “SPORICIDAL COMPOSITION” (CASE WESTERN RESERVE UNIVERSITY, priority 2016, published 2017)

Legend:
[1] = system: Clostridium difficile spores (VA11, VA17, ATCC 43593); assay: Effect of altered pH on sporicidal activity of alcohol (spore suspension, log10CFU reduction); format: cell-based; conditions: 70% alcohol acidified to pH<2 (pH 1.5), 5 minutes, room temperature (FIG. 7A)
Procedure: (room temperature). B. subtilis, B. thuringiensis, and three strains of C. difficile spores were tested (described above in Spore Strains and Growth Conditions). The reaction was quenched by neutralizing 1:1 in Dey-Engley neutralization broth (BD Biosciences, San Jose, Calif., USA). Neutralized samples were serial diluted in deionized water, drop-plated, and cultured as described above in Spore Strains and Growth Conditions.
The reaction was quenched by neutralizing 1:1 in Dey-Engley neutralization broth (BD Biosciences, San Jose, Calif.). Neutralized samples were serially diluted in deionized water, drop-plated, and cultured as described previously. To increase the sensitivity of enumeration for samples with high levels of spore killing, 1 mL of the neutralized spore suspensions were spread-plated.

[2] = system: C. difficile (VA17) spores; assay: Dipicolinic acid (DPA) release, terbium fluorescence; format: cell-based, Clostridium difficile; conditions: room temperature, within 10 minutes; compared to water, 70% ethanol and pH 1.5 water
Procedure: (§1) To assess whether acidified ethanol truly kills spores or only renders them incapable of germination, recovery of killed spores was assessed by incubation in lysozyme or dodecylamine which bypass germinant receptors. To assess whether acidified ethanol kills spores through alteration in the permeability of the dormant spores' inner membrane barrier, we evaluated whether spore killing occurs in parallel with dipicolinic acid (DPA) release. C. difficile (VA17), B. thuringiensis and B. subtilis spores were suspended in water, water altered to pH 1.5, 70% ethanol, 70% ethanol altered to pH 1.5, 3.0 or 3.0 with increased ionic strength, and 1 mM dodecylamine (induces DPA release in spores of several species). After 1, 5, and 10 minutes of incubation at room temperature (about 22° C.), DPA release was assessed as previously described. […] Fluorescence was measured using a plate reader (SpectraMaxM2, Bucher Biotec, Basel, Switzerland) with the following settings: time resolved fluorescence (delay 50 μs, interval 1200 μs) at an excitation wavelength of 272 nm, emission wavelength of 545 nm, and 5 endpoint readings per sample at 22° C. To determine percent DPA release, relative fluorescence units (RFU) of test solutions were compared to the RFU of total spore DPA content (supernatant of 10^7 CFU spores suspended in water boiled for 30 minutes) as previously described.

B. thuringiensis spores [3] = conditions: room temperature, 1, 5, 10 minutes
Procedure: as §1

B. subtilis spores [4] = conditions: room temperature, 1, 5, 10 minutes
Procedure: as §1

[5] = system: toxigenic C. difficile spores; design: species or system Clostridium difficile; conditions: applied as a liquid or wipe
Description: Reduction of toxigenic C. difficile spores inoculated on gloves of volunteers was compared after 30 or 60 second exposures to the sporicidal ethanol formulation, 70% ethanol, and 1:10 or 1:100 dilutions of household bleach; the solutions were applied both as a liquid solution and as a wipe. We also examined the efficacy of the sporicidal ethanol formulation for elimination of spore contamination from the gloves of healthcare personnel interacting with C. difficile infection (CDI) patients or their environment. To determine the potential for the disinfectants to damage clothing, the solutions were applied to pieces of colored cloth.

[6] = system: C. difficile spores (strains VA11 and VA17); conditions: 70% ethanol, no pH alteration
Procedure: (§2) To determine the effect of elevated temperature on the sporicidal efficacy of ethanol, ten microliters of spores (˜10^6 CFU) were incubated in one mL of 70% ethanol or deionized water at about 22° C. (room temperature), 55° C. or 80° C. The pH was not altered for these experiments. B. subtilis, B. thuringiensis, and VA11 and VA17 C. difficile spores were tested (described above in Spore Strains and Growth Conditions). After 0, 5, 10, 20, 30 and 60 minutes of incubation at the appropriate temperature, aliquots of each spore suspension were serial diluted in deionized water, drop-plated, and cultured as described above in Spore Strains and Growth Conditions. Log10CFU reduction of spores was determined by calculating the difference in log10CFU recovered from baseline (spores incubated in water) and experimental groups (spores incubated in ethanol).

B. thuringiensis spores [7] = conditions: 70% ethanol, no pH alteration, 80° C., 60 minutes
Procedure: as §2

B. subtilis spores [8] = conditions: 70% ethanol, no pH alteration, 80° C., 60 minutes
Procedure: as §2

spores = assay: Other antibacterial compounds in combination with acidified ethanol (sporicidal activity); format: cell-based; conditions: compared with addition of peracetic acid
[9] = in-use concentrations of surface disinfectants (~1500 ppm); cited from earlier work
[10] = system: C. difficile (VA17) spores; assay: Effect of addition of dilute peracetic acid on sporicidal activity of acidified ethanol; format: cell-based, Clostridium difficile; conditions: peracetic acid alone at 450, 650 and 1500 ppm, 3 minute dwell time
Procedure: (§3) The effect of addition of peracetic acid on activity of acidified ethanol against C. difficile (VA17) and B. subtilis was tested at room temperature (about 22° C.). The pH of specified test solutions was adjusted to 2.5 or 1.5 with hydrochloric acid (HCl). Ten microliters of spores (about 10^6 CFU) were inoculated into one mL of water (baseline), pH adjusted ethanol, peracetic acid at 450, 650, or 1500 ppm, pH adjusted peracetic acid at 450 and 650 ppm, ethanol plus peracetic acid at 450 and 650 ppm, and pH adjusted ethanol plus peracetic acid at 450 and 650 ppm. Spore suspensions were incubated at room temperature for three minutes. The reaction was quenched by neutralizing 1:1 in Dey-Engley neutralization broth (BD Biosciences). […] Experiments were performed in triplicate.
(§4) The effect of the addition of dilute PAA on the activity of acidified ethanol against C. difficile strain VA17 and B. subtilis was tested at 22° C. The pH of specified test solutions was adjusted to 2.5 or 1.5 with hydrochloric acid. Ten μL of spores (˜10^6 CFU) were inoculated into one mL of water (baseline), pH adjusted ethanol, PAA at 450, 650, or 1500 ppm, pH adjusted PAA at 450 and 650 ppm, ethanol plus PAA at 450 and 650 ppm, and pH adjusted ethanol plus PAA at 450 and 650 ppm and incubated for 3 minutes. The reaction was quenched by neutralizing 1:1 in Dey-Engley neutralization broth. […]

B. subtilis spores [11] = assay: as above; format: cell-based, Bacillus subtilis; conditions: peracetic acid alone at 450, 650 and 1500 ppm, 3 minute dwell time
Procedure: as §3, §4

[12] = system: non-toxigenic C. difficile spores (ATCC 43593); assay: Reduction of C. difficile spores on hands of volunteers (fingerpad method, modified ASTM E 2276-10); format: in vivo, Clostridium difficile; conditions: Example 3; P>0.05
Procedure: A modification of the “Standard Test Method for Determining the Bacteria-Eliminating Effectiveness of Hygienic Handwash and Handrub Agents Using the Fingerpads of Adults” (American Society for Testing and Materials E 2276-10) was used to determine the efficacy of test solutions against non-toxigenic C. difficile spores. Each fingerpad of both hands were contaminated with 10 μL of a liquid inoculum containing 6 log10CFU of ATCC 43593 spores. The fingerpads were rubbed together until the inoculum was dry. Hand contamination levels were measured using the fingerpad sampling method. In brief, the fingerpads of each hand were rubbed with slight friction against the bottom of a 150 mm×15 mm Petri dish filled with 25 mL of Dey-Engley neutralizer (BD Biosciences, San Jose, Calif., USA) for 30 seconds. […] Log10 reductions were calculated by subtracting log10 CFU recovered after hand hygiene treatment from log10 CFU recovered from hands without treatment.
A crossover design was used such that each volunteer was exposed to three of the disinfection procedures. […] The person reading the plates to quantify spore counts was blinded to the test product that was used. […]
Similar experiments were conducted to assess the efficacy of dilute peracetic acid-containing solutions and acidified ethanol solutions at 42° C. […] Reductions in spore counts were then determined as described previously. […]

## CCCO [1-propanol]
[1]
  Sporicidal activity against C. difficile spores on acidification of the alcohol: induced sporicidal activity

## CC(C)O [2-propanol]
[1]
  Sporicidal activity against C. difficile spores on acidification of the alcohol: induced sporicidal activity

## CCO [70% ethanol, ethanol]
[2]
  DPA release from C. difficile spores: low levels of baseline DPA release
B. thuringiensis spores [3]
  DPA release from B. thuringiensis spores: low levels of baseline DPA release
B. subtilis spores [4]
  DPA release from B. subtilis spores: did not
[5]
  Reduction in spores on gloves: < 1 log
[6]; 55° C., 60 minutes
  Log10CFU reduction of C. difficile spores: 1 log10CFU
[6]; 80° C., 10 minutes
  Detectable C. difficile spores: no C. difficile spores were detectable
B. thuringiensis spores [7]
  Log10CFU reduction of B. thuringiensis spores: > 5 log10CFU
B. subtilis spores [8]
  Log10CFU reduction of B. subtilis spores: > 4 log10CFU

## [O][Cl+][O-] [chlorine dioxide]
spores
  Enhancement of sporicidal activity on addition to acidified ethanol: did not result in similar enhancement of sporicidal activity

## [Cu] [copper]
spores
  Enhancement of sporicidal activity on addition to acidified ethanol: did not result in similar enhancement of sporicidal activity

## II [iodine]
spores
  Enhancement of sporicidal activity on addition to acidified ethanol: did not result in similar enhancement of sporicidal activity

## CC(=O)OO [peracetic acid]
[9]
  Skin irritation: does not cause skin irritation
[10]
  Reduction of C. difficile spores: in a dose-dependent fashion
B. subtilis spores [11]
  Reduction of B. subtilis spores: in a dose-dependent fashion
[12]
  Reduction in C. difficile spores on hands compared with soap and water hand wash: not significantly different

## OCl [sodium hypochlorite]
spores
  Enhancement of sporicidal activity on addition to acidified ethanol: did not result in similar enhancement of sporicidal activity
